Results as given in PubChem BioAssay (NCI).
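Protocol summary: plate cells (96-well), add compound at 5 concentrations, incubate 48 h, interpolate endpoints linearly. Here, GI50 denotes the concentration required for 50% inhibition of growth. At the TGI there is no net growth.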

Columns and labels:
Assay in all cases: DTP human tumour cell line panel, 48 h; in the data active means GI50 below about 0.43 µM; inactive means the rest
EKVX NSCLC = test system: EKVX NSCLC
OVCAR-3 ovarian = test system: OVCAR-3 ovarian
OVCAR-8 ovarian = test system: OVCAR-8 ovarian
786-0 renal = test system: 786-0 renal
CAKI-1 renal = test system: CAKI-1 renal
HCC-2998 colon = test system: HCC-2998 colon
UACC-257 melanoma = test system: UACC-257 melanoma
TK-10 renal = test system: TK-10 renal
OVCAR-4 ovarian = test system: OVCAR-4 ovarian
RXF 393 renal = test system: RXF 393 renal
HOP-92 NSCLC = test system: HOP-92 NSCLC
RPMI-8226 leukemia = test system: RPMI-8226 leukemia
HS 578T breast = test system: HS 578T breast
MOLT-4 leukemia = test system: MOLT-4 leukemia
HOP-62 NSCLC = test system: HOP-62 NSCLC
UO-31 renal = test system: UO-31 renal
LOX IMVI melanoma = test system: LOX IMVI melanoma
SN12C renal = test system: SN12C renal
T-47D breast = test system: T-47D breast
MCF7 breast = test system: MCF7 breast
SF-539 CNS = test system: SF-539 CNS
HCT-15 colon = test system: HCT-15 colon
SK-MEL-28 melanoma = test system: SK-MEL-28 melanoma
SK-MEL-5 melanoma = test system: SK-MEL-5 melanoma
NCI-H522 lung = test system: NCI-H522 lung
DU-145 prostate = test system: DU-145 prostate
NCI-H23 lung = test system: NCI-H23 lung
NCI-H460 lung = test system: NCI-H460 lung
SF-295 CNS = test system: SF-295 CNS
A498 renal = test system: A498 renal
M14 melanoma = test system: M14 melanoma
SK-OV-3 ovarian = test system: SK-OV-3 ovarian
U251 CNS = test system: U251 CNS
MALME-3M melanoma = test system: MALME-3M melanoma
PC-3 prostate = test system: PC-3 prostate
UACC-62 melanoma = test system: UACC-62 melanoma
A549 NSCLC = test system: A549 NSCLC
HCT-116 colon = test system: HCT-116 colon
SW-620 colon = test system: SW-620 colon
NCI-H226 lung = test system: NCI-H226 lung
OVCAR-5 ovarian = test system: OVCAR-5 ovarian
BT-549 breast = test system: BT-549 breast
SNB-19 CNS = test system: SNB-19 CNS
SK-MEL-2 melanoma = test system: SK-MEL-2 melanoma
MDA-MB-231 breast = test system: MDA-MB-231 breast
MDA-MB-435 = test system: MDA-MB-435
ACHN renal = test system: ACHN renal
CCRF-CEM leukemia = test system: CCRF-CEM leukemia
SF-268 CNS = test system: SF-268 CNS
HT29 colon = test system: HT29 colon
IGROV1 ovarian = test system: IGROV1 ovarian
KM12 colon = test system: KM12 colon
COLO 205 colon = test system: COLO 205 colon
SNB-75 CNS = test system: SNB-75 CNS
K-562 leukemia = test system: K-562 leukemia

COc1ccc(OC)c(C2SCC(=O)N2NC(=O)C(O)c2ccccc2)c1 (configuration not stated)
inactive: GI50 (EKVX NSCLC) > 100 µM | GI50 (OVCAR-3 ovarian) > 100 µM | GI50 (OVCAR-8 ovarian) > 100 µM | GI50 (786-0 renal) > 100 µM | GI50 (CAKI-1 renal) > 100 µM | GI50 (HCC-2998 colon) > 100 µM | GI50 (UACC-257 melanoma) > 100 µM | GI50 (TK-10 renal) > 100 µM | GI50 (OVCAR-4 ovarian) > 100 µM | GI50 (RXF 393 renal) > 100 µM | GI50 (HOP-92 NSCLC) > 100 µM | GI50 (RPMI-8226 leukemia) > 100 µM | GI50 (HS 578T breast) > 100 µM | GI50 (MOLT-4 leukemia) > 100 µM | GI50 (HOP-62 NSCLC) > 100 µM | GI50 (UO-31 renal) > 100 µM | GI50 (LOX IMVI melanoma) > 100 µM | GI50 (SN12C renal) > 100 µM | GI50 (T-47D breast) > 100 µM | GI50 (MCF7 breast) > 100 µM | GI50 (SF-539 CNS) > 100 µM | GI50 (HCT-15 colon) > 100 µM | GI50 (SK-MEL-28 melanoma) > 100 µM | GI50 (SK-MEL-5 melanoma) > 100 µM | GI50 (NCI-H522 lung) > 100 µM | GI50 (DU-145 prostate) > 100 µM | GI50 (NCI-H23 lung) > 100 µM | GI50 (NCI-H460 lung) > 100 µM | GI50 (SF-295 CNS) > 100 µM | GI50 (A498 renal) > 100 µM | GI50 (M14 melanoma) > 100 µM | GI50 (SK-OV-3 ovarian) > 100 µM | GI50 (U251 CNS) > 100 µM | GI50 (MALME-3M melanoma) > 100 µM | GI50 (PC-3 prostate) > 100 µM | GI50 (UACC-62 melanoma) > 100 µM | GI50 (A549 NSCLC) > 100 µM | GI50 (HCT-116 colon) > 100 µM | GI50 (SW-620 colon) > 100 µM | GI50 (NCI-H226 lung) > 100 µM | GI50 (OVCAR-5 ovarian) > 100 µM | GI50 (BT-549 breast) > 100 µM | GI50 (SNB-19 CNS) > 100 µM | GI50 (SK-MEL-2 melanoma) > 100 µM | GI50 (MDA-MB-231 breast) > 100 µM | GI50 (MDA-MB-435) > 100 µM | GI50 (ACHN renal) > 100 µM | GI50 (CCRF-CEM leukemia) > 100 µM | GI50 (SF-268 CNS) > 100 µM | GI50 (HT29 colon) > 100 µM | GI50 (IGROV1 ovarian) > 100 µM | GI50 (KM12 colon) > 100 µM | GI50 (COLO 205 colon) > 100 µM | GI50 (SNB-75 CNS) > 100 µM | GI50 (K-562 leukemia) > 100 µM
> 100 µM: TGI (EKVX NSCLC) | TGI (OVCAR-3 ovarian) | TGI (OVCAR-8 ovarian) | TGI (786-0 renal) | TGI (CAKI-1 renal) | TGI (HCC-2998 colon) | TGI (UACC-257 melanoma) | TGI (TK-10 renal) | TGI (OVCAR-4 ovarian) | TGI (RXF 393 renal) | TGI (HOP-92 NSCLC) | TGI (RPMI-8226 leukemia) | TGI (HS 578T breast) | TGI (MOLT-4 leukemia) | TGI (HOP-62 NSCLC) | TGI (UO-31 renal) | TGI (LOX IMVI melanoma) | TGI (SN12C renal) | TGI (T-47D breast) | TGI (MCF7 breast) | TGI (SF-539 CNS) | TGI (HCT-15 colon) | TGI (SK-MEL-28 melanoma) | TGI (SK-MEL-5 melanoma) | TGI (NCI-H522 lung) | TGI (DU-145 prostate) | TGI (NCI-H23 lung) | TGI (NCI-H460 lung) | TGI (SF-295 CNS) | TGI (A498 renal) | TGI (M14 melanoma) | TGI (SK-OV-3 ovarian) | TGI (U251 CNS) | TGI (MALME-3M melanoma) | TGI (PC-3 prostate) | TGI (UACC-62 melanoma) | TGI (A549 NSCLC) | TGI (HCT-116 colon) | TGI (SW-620 colon) | TGI (NCI-H226 lung) | TGI (OVCAR-5 ovarian) | TGI (BT-549 breast) | TGI (SNB-19 CNS) | TGI (SK-MEL-2 melanoma) | TGI (MDA-MB-231 breast) | TGI (MDA-MB-435) | TGI (ACHN renal) | TGI (CCRF-CEM leukemia) | TGI (SF-268 CNS) | TGI (HT29 colon) | TGI (IGROV1 ovarian) | TGI (KM12 colon) | TGI (COLO 205 colon) | TGI (SNB-75 CNS) | TGI (K-562 leukemia)

COC1O[C@@H]2C[C@H]3C(C)(C)CCC[C@]3(C)C3=CCCC1[C@@]32C (some centres not stated)
> 100 µM: TGI (EKVX NSCLC) | TGI (OVCAR-3 ovarian) | TGI (OVCAR-8 ovarian) | TGI (786-0 renal) | TGI (UACC-257 melanoma) | TGI (TK-10 renal) | TGI (OVCAR-4 ovarian) | TGI (RXF 393 renal) | TGI (HOP-92 NSCLC) | TGI (RPMI-8226 leukemia) | TGI (HS 578T breast) | TGI (MOLT-4 leukemia) | TGI (HOP-62 NSCLC) | TGI (UO-31 renal) | TGI (LOX IMVI melanoma) | TGI (SN12C renal) | TGI (T-47D breast) | TGI (MCF7 breast) | TGI (SF-539 CNS) | TGI (HCT-15 colon) | TGI (SK-MEL-28 melanoma) | TGI (SK-MEL-5 melanoma) | TGI (NCI-H522 lung) | TGI (DU-145 prostate) | TGI (NCI-H23 lung) | TGI (NCI-H460 lung) | TGI (SF-295 CNS) | TGI (A498 renal) | TGI (M14 melanoma) | TGI (U251 CNS) | TGI (MALME-3M melanoma) | TGI (PC-3 prostate) | TGI (UACC-62 melanoma) | TGI (A549 NSCLC) | TGI (HCT-116 colon) | TGI (SW-620 colon) | TGI (NCI-H226 lung) | TGI (OVCAR-5 ovarian) | TGI (BT-549 breast) | TGI (SNB-19 CNS) | TGI (MDA-MB-231 breast) | TGI (MDA-MB-435) | TGI (ACHN renal) | TGI (CCRF-CEM leukemia) | TGI (SF-268 CNS) | TGI (HT29 colon) | TGI (IGROV1 ovarian) | TGI (KM12 colon) | TGI (COLO 205 colon) | TGI (SNB-75 CNS) | TGI (K-562 leukemia)
inactive: GI50 (EKVX NSCLC) > 100 µM | GI50 (OVCAR-3 ovarian) > 100 µM | GI50 (OVCAR-8 ovarian) > 100 µM | GI50 (786-0 renal) > 100 µM | GI50 (UACC-257 melanoma) > 100 µM | GI50 (TK-10 renal) > 100 µM | GI50 (OVCAR-4 ovarian) > 100 µM | GI50 (RXF 393 renal) > 100 µM | GI50 (HOP-92 NSCLC) > 100 µM | GI50 (RPMI-8226 leukemia) > 100 µM | GI50 (HS 578T breast) > 100 µM | GI50 (MOLT-4 leukemia) > 100 µM | GI50 (HOP-62 NSCLC) > 100 µM | GI50 (UO-31 renal) > 100 µM | GI50 (LOX IMVI melanoma) > 100 µM | GI50 (SN12C renal) > 100 µM | GI50 (T-47D breast) > 100 µM | GI50 (MCF7 breast) > 100 µM | GI50 (SF-539 CNS) > 100 µM | GI50 (HCT-15 colon) > 100 µM | GI50 (SK-MEL-28 melanoma) > 100 µM | GI50 (SK-MEL-5 melanoma) > 100 µM | GI50 (NCI-H522 lung) > 100 µM | GI50 (DU-145 prostate) > 100 µM | GI50 (NCI-H23 lung) > 100 µM | GI50 (NCI-H460 lung) > 100 µM | GI50 (SF-295 CNS) > 100 µM | GI50 (A498 renal) > 100 µM | GI50 (M14 melanoma) > 100 µM | GI50 (U251 CNS) > 100 µM | GI50 (MALME-3M melanoma) > 100 µM | GI50 (PC-3 prostate) 0.515 µM | GI50 (UACC-62 melanoma) > 100 µM | GI50 (A549 NSCLC) > 100 µM | GI50 (HCT-116 colon) > 100 µM | GI50 (SW-620 colon) > 100 µM | GI50 (NCI-H226 lung) > 100 µM | GI50 (OVCAR-5 ovarian) > 100 µM | GI50 (BT-549 breast) > 100 µM | GI50 (SNB-19 CNS) > 100 µM | GI50 (MDA-MB-231 breast) > 100 µM | GI50 (MDA-MB-435) > 100 µM | GI50 (ACHN renal) > 100 µM | GI50 (CCRF-CEM leukemia) > 100 µM | GI50 (SF-268 CNS) > 100 µM | GI50 (HT29 colon) > 100 µM | GI50 (IGROV1 ovarian) > 100 µM | GI50 (KM12 colon) > 100 µM | GI50 (COLO 205 colon) > 100 µM | GI50 (SNB-75 CNS) > 100 µM | GI50 (K-562 leukemia) > 100 µM
